Source: publication PMC8953660, “Selective measurement of NAPE-PLD activity via a PLA1/2-resistant fluorogenic N-acyl-phosphatidylethanolamine analog” (Journal of Lipid Research, 2021)
Where two headings read alike, the source gives them in different places.

Biological target: T1, recombinant mouse Nape-pld (NAPE-PLD) (Mus musculus, UniProt Q8BH82)
T1 construct: gene Napepld
Details: 50 mM Tris-HCl pH 8.0, N-octyl-β-D-glucoside, 37 °C, allosteric sigmoidal fit

T1 sequence (Q8BH82 whole entry): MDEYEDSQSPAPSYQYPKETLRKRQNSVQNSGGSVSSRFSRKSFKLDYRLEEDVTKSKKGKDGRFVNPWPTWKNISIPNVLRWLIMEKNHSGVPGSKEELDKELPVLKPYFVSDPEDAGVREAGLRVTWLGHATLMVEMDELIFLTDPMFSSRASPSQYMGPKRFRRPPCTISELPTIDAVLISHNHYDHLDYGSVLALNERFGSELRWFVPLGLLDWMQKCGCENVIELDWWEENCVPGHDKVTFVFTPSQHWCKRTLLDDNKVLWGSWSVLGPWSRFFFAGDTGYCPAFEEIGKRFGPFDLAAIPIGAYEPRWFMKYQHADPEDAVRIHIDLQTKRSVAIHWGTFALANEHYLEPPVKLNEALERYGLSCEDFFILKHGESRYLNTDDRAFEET

CCCCCCO[C@H](COC(=O)CCCCC1=[N+]2C(=Cc3c(C)cc(C)n3[B-]2(F)F)C=C1)COP(=O)(O)OCCNC(=O)CCCCCNc1ccc([N+](=O)[O-])cc1[N+](=O)[O-] [PED-A1]
Km: 4 µM

CCCCCCO[C@@H](COP(=O)(O)OCCNC(=O)CCCCCNc1ccc([N+](=O)[O-])cc1[N+](=O)[O-])CN(C)C(=O)CCCCc1ccc2n1[B-](F)(F)[N+]1=C(C)C=C(C)C1=C2 [flame-NAPE]
Km (authors note evidence of an inadequate regression model for flame-NAPE): 9.2 µM
